Laboratory results taken from patent US20260015358A1, “BICYCLIC DERIVATIVES, COMPOSITIONS AND USES THEREOF” (Danatlas Pharmaceuticals Co., Ltd., priority 2023, published 2026).
pIC50: −log10 of the molar value.

Columns and labels:
[1] = molecular target: T1, WRN [UniPro: Q14191 (WRN_HUMAN), N500-C946] (Homo sapiens (Human), UniProt Q14191); assay: WRN ATPase assay (ADP-Glo); format: biochemical; conditions: WRN enzymatic activity assay
[2] = molecular target: T1, WRN [UniPro: Q14191 (WRN_HUMAN), N500-C946]; assay: WRN unwinding assay (FORKF DNA, fluorescence); format: biochemical; conditions: Table 14

T1 sequence (Q14191 500-946): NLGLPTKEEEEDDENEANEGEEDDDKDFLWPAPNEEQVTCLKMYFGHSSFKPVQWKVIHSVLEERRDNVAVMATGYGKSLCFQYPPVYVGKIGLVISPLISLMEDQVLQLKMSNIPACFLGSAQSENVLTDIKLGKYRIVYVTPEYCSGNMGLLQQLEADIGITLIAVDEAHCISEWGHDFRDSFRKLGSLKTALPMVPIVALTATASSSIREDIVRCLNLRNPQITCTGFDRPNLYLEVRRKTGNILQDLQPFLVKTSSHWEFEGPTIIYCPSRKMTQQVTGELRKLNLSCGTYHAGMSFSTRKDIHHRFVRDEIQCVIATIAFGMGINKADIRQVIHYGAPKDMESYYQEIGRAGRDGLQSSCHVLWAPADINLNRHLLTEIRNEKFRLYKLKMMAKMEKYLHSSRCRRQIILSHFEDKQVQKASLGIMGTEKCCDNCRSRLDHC

SMILES	pIC50 [1]	pIC50 [2]
CCc1c(N2CCN(C(=O)CNC(=O)CC3CC3)CC2)c(=O)n2nc(C3=CCOCC3)nc2n1CC(=O)Nc1ccc(C(F)(F)F)cc1Cl [Example 275, N-(2-Chloro-4-(trifluoromethyl)phenyl)-2-(6-(4-((2-cyclopropylacetyl)glycyl)piperazin-1-yl)-2-(3,6-dihydro-2H-pyran-4-yl)-5-ethyl-7-oxo-[1,2,4]triazolo[1,5-a]pyrimidin-4(7H)-yl)acetamide]	> 7.00	> 7.00
CCc1c(N2CCN(C(=O)CNC(=O)Cc3cscn3)CC2)c(=O)n2nc(C3=CCOCC3)nc2n1CC(=O)Nc1ccc(C(F)(F)F)cc1Cl [Example 276, N-(2-Chloro-4-(trifluoromethyl)phenyl)-2-(2-(3,6-dihydro-2H-pyran-4-yl)-5-ethyl-7-oxo-6-(4-((2-(thiazol-4-yl)acetyl)glycyl)piperazin-1-yl)-[1,2,4]triazolo[1,5-a]pyrimidin-4(7H)-yl)acetamide]	> 7.00	> 7.00
CCc1c(N2CCN(C(=O)CNC(=O)c3cccc(NC)c3)CC2)c(=O)n2nc(C3=CCOCC3)nc2n1CC(=O)Nc1ccc(C(F)(F)F)cc1Cl [Example 277, N-(2-(4-(4-(2-((2-Chloro-4-(trifluoromethyl)phenyl)amino)-2-oxoethyl)-2-(3,6-dihydro-2H-pyran-4-yl)-5-ethyl-7-oxo-4,7-dihydro-[1,2,4]triazolo[1,5-a]pyrimidin-6-yl)piperazin-1-yl)-2-oxoethyl)-3-(methylamino)benzamide]	> 7.00	> 7.00
CCc1c(N2CCN(C(=O)CNC(=O)c3cccc(NC(C)=O)c3)CC2)c(=O)n2nc(C3=CCOCC3)nc2n1CC(=O)Nc1ccc(C(F)(F)F)cc1Cl [Example 278, 3-Acetamido-N-(2-(4-(4-(2-((2-chloro-4-(trifluoromethyl)phenyl)amino)-2-oxoethyl)-2-(3,6-dihydro-2H-pyran-4-yl)-5-ethyl-7-oxo-4,7-dihydro-[1,2,4]triazolo[1,5-a]pyrimidin-6-yl)piperazin-1-yl)-2-oxoethyl)benzamide]	> 7.00	> 7.00
CCc1c(N2CCN(C(=O)CNC(=O)c3ccnc(O)c3)CC2)c(=O)n2nc(C3=CCOCC3)nc2n1CC(=O)Nc1ccc(C(F)(F)F)cc1Cl [Example 279, N-(2-(4-(4-(2-((2-Chloro-4-(trifluoromethyl)phenyl)amino)-2-oxoethyl)-2-(3,6-dihydro-2H-pyran-4-yl)-5-ethyl-7-oxo-4,7-dihydro-[1,2,4]triazolo[1,5-a]pyrimidin-6-yl)piperazin-1-yl)-2-oxoethyl)-2-hydroxyisonicotinamide]	> 7.00	> 7.00
CCc1c(N2CCN(C(=O)CNC(=O)c3cnccc3O)CC2)c(=O)n2nc(C3=CCOCC3)nc2n1CC(=O)Nc1ccc(C(F)(F)F)cc1Cl [Example 280, N-(2-(4-(4-(2-((2-Chloro-4-(trifluoromethyl)phenyl)amino)-2-oxoethyl)-2-(3,6-dihydro-2H-pyran-4-yl)-5-ethyl-7-oxo-4,7-dihydro-[1,2,4]triazolo[1,5-a]pyrimidin-6-yl)piperazin-1-yl)-2-oxoethyl)-4-hydroxynicotinamide]	> 7.00	> 7.00
CCc1c(N2CCN(C(=O)CNC(=O)c3cncc(O)c3)CC2)c(=O)n2nc(C3=CCOCC3)nc2n1CC(=O)Nc1ccc(C(F)(F)F)cc1Cl [Example 281, N-(2-(4-(4-(2-((2-Chloro-4-(trifluoromethyl)phenyl)amino)-2-oxoethyl)-2-(3,6-dihydro-2H-pyran-4-yl)-5-ethyl-7-oxo-4,7-dihydro-[1,2,4]triazolo[1,5-a]pyrimidin-6-yl)piperazin-1-yl)-2-oxoethyl)-5-hydroxynicotinamide]	> 7.00	> 7.00
CCc1c(N2CCN(C(=O)CNC(=O)c3cccnc3O)CC2)c(=O)n2nc(C3=CCOCC3)nc2n1CC(=O)Nc1ccc(C(F)(F)F)cc1Cl [Example 282, N-(2-(4-(4-(2-((2-Chloro-4-(trifluoromethyl)phenyl)amino)-2-oxoethyl)-2-(3,6-dihydro-2H-pyran-4-yl)-5-ethyl-7-oxo-4,7-dihydro-[1,2,4]triazolo[1,5-a]pyrimidin-6-yl)piperazin-1-yl)-2-oxoethyl)-2-hydroxynicotinamide]	> 7.00	> 7.00
CCc1c(N2CCN(C(=O)CNC(=O)c3cn(C)[nH]c3=O)CC2)c(=O)n2nc(C3=CCOCC3)nc2n1CC(=O)Nc1ccc(C(F)(F)F)cc1Cl [Example 283, N-(2-(4-(4-(2-((2-Chloro-4-(trifluoromethyl)phenyl)amino)-2-oxoethyl)-2-(3,6-dihydro-2H-pyran-4-yl)-5-ethyl-7-oxo-4,7-dihydro-[1,2,4]triazolo[1,5-a]pyrimidin-6-yl)piperazin-1-yl)-2-oxoethyl)-1-methyl-3-oxo-2,3-dihydro-1H-pyrazole-4-carboxamide]	6.00 to 7.00	> 7.00
CCc1c(N2CCN(C(=O)CNC(=O)c3cc(F)cc(NC)c3)CC2)c(=O)n2nc(C3=CCOCC3)nc2n1CC(=O)Nc1ccc(C(F)(F)F)cc1Cl [Example 284, N-(2-(4-(4-(2-((2-Chloro-4-(trifluoromethyl)phenyl)amino)-2-oxoethyl)-2-(3,6-dihydro-2H-pyran-4-yl)-5-ethyl-7-oxo-4,7-dihydro-[1,2,4]triazolo[1,5-a]pyrimidin-6-yl)piperazin-1-yl)-2-oxoethyl)-3-fluoro-5-(methylamino)benzamide]	> 7.00	> 7.00
CCc1c(N2CCN(C(=O)CNC(=O)c3ccc(F)c(NC)c3)CC2)c(=O)n2nc(C3=CCOCC3)nc2n1CC(=O)Nc1ccc(C(F)(F)F)cc1Cl [Example 285, N-(2-(4-(4-(2-((2-Chloro-4-(trifluoromethyl)phenyl)amino)-2-oxoethyl)-2-(3,6-dihydro-2H-pyran-4-yl)-5-ethyl-7-oxo-4,7-dihydro-[1,2,4]triazolo[1,5-a]pyrimidin-6-yl)piperazin-1-yl)-2-oxoethyl)-4-fluoro-3-(methylamino)benzamide]	> 7.00	> 7.00

More lines, now with the values ahead:

pIC50 [1]	pIC50 [2]	SMILES
> 7.00	> 7.00	CCc1c(N2CCN(C(=O)CNC(=O)c3ccc(F)c(N(C)C)c3)CC2)c(=O)n2nc(C3=CCOCC3)nc2n1CC(=O)Nc1ccc(C(F)(F)F)cc1Cl [Example 286, N-(2-(4-(4-(2-((2-Chloro-4-(trifluoromethyl)phenyl)amino)-2-oxoethyl)-2-(3,6-dihydro-2H-pyran-4-yl)-5-ethyl-7-oxo-4,7-dihydro-[1,2,4]triazolo[1,5-a]pyrimidin-6-yl)piperazin-1-yl)-2-oxoethyl)-3-(dimethylamino)-4-fluorobenzamide]
> 7.00	> 7.00	CCc1c(N2CCN(C(=O)CNC(=O)c3cccc(NC)c3F)CC2)c(=O)n2nc(C3=CCOCC3)nc2n1CC(=O)Nc1ccc(C(F)(F)F)cc1Cl [Example 287, N-(2-(4-(4-(2-((2-Chloro-4-(trifluoromethyl)phenyl)amino)-2-oxoethyl)-2-(3,6-dihydro-2H-pyran-4-yl)-5-ethyl-7-oxo-4,7-dihydro-[1,2,4]triazolo[1,5-a]pyrimidin-6-yl)piperazin-1-yl)-2-oxoethyl)-2-fluoro-3-(methylamino)benzamide]
> 7.00	> 7.00	CCc1c(N2CCN(C(=O)CNC(=O)c3cccc(N)c3)CC2)c(=O)n2nc(C3=CCOCC3)nc2n1CC(=O)Nc1ccc(C(F)(F)F)cc1Cl [Example 288, 3-Amino-N-(2-(4-(4-(2-((2-chloro-4-(trifluoromethyl)phenyl)amino)-2-oxoethyl)-2-(3,6-dihydro-2H-pyran-4-yl)-5-ethyl-7-oxo-4,7-dihydro-[1,2,4]triazolo[1,5-a]pyrimidin-6-yl)piperazin-1-yl)-2-oxoethyl)benzamide]
> 7.00	> 7.00	CCc1c(N2CCN(C(=O)CNC(=O)c3cc(NC)ccc3F)CC2)c(=O)n2nc(C3=CCOCC3)nc2n1CC(=O)Nc1ccc(C(F)(F)F)cc1Cl [Example 289, N-(2-(4-(4-(2-((2-Chloro-4-(trifluoromethyl)phenyl)amino)-2-oxoethyl)-2-(3,6-dihydro-2H-pyran-4-yl)-5-ethyl-7-oxo-4,7-dihydro-[1,2,4]triazolo[1,5-a]pyrimidin-6-yl)piperazin-1-yl)-2-oxoethyl)-2-fluoro-5-(methylamino)benzamide]
> 7.00	> 7.00	CCc1c(N2CCN(C(=O)CNC(=O)c3cc(O)ccc3F)CC2)c(=O)n2nc(C3=CCOCC3)nc2n1CC(=O)Nc1ccc(C(F)(F)F)cc1Cl [Example 290, N-(2-(4-(4-(2-((2-Chloro-4-(trifluoromethyl)phenyl)amino)-2-oxoethyl)-2-(3,6-dihydro-2H-pyran-4-yl)-5-ethyl-7-oxo-4,7-dihydro-[1,2,4]triazolo[1,5-a]pyrimidin-6-yl)piperazin-1-yl)-2-oxoethyl)-2-fluoro-5-hydroxybenzamide]
> 7.00	> 7.00	CCc1c(N2CCN(C(=O)CNC(=O)c3cc(O)cc(F)c3)CC2)c(=O)n2nc(C3=CCOCC3)nc2n1CC(=O)Nc1ccc(C(F)(F)F)cc1Cl [Example 291, N-(2-(4-(4-(2-((2-Chloro-4-(trifluoromethyl)phenyl)amino)-2-oxoethyl)-2-(3,6-dihydro-2H-pyran-4-yl)-5-ethyl-7-oxo-4,7-dihydro-[1,2,4]triazolo[1,5-a]pyrimidin-6-yl)piperazin-1-yl)-2-oxoethyl)-3-fluoro-5-hydroxybenzamide]
> 7.00	> 7.00	CCc1c(N2CCN(C(=O)CNC(=O)c3ccc(F)c(O)c3)CC2)c(=O)n2nc(C3=CCOCC3)nc2n1CC(=O)Nc1ccc(C(F)(F)F)cc1Cl [Example 292, N-(2-(4-(4-(2-((2-Chloro-4-(trifluoromethyl)phenyl)amino)-2-oxoethyl)-2-(3,6-dihydro-2H-pyran-4-yl)-5-ethyl-7-oxo-4,7-dihydro-[1,2,4]triazolo[1,5-a]pyrimidin-6-yl)piperazin-1-yl)-2-oxoethyl)-4-fluoro-3-hydroxybenzamide]
